Laboratory results from ChEMBL document CHEMBL1201862, “PubChem BioAssay data set” (2004).
Active and inactive are the calls of the source.

Experiments:
Steroidogenic factor 1 = Steroidogenic factor 1 (Homo sapiens, UniProt Q13285); assay: Counterscreen for inverse agonists of the liver receptor homolog-1 (LRH-1; NR5A2): Luminescence-based cell-based high throughput dose response assay to identify inverse agonists of the Steroidogenic Factor 1 Nuclear Receptor (SF1; NR5A1).; type: functional
[1] = nonselective StAR promoter luciferase inhibitors – cell-based, luminescence, luciferase reporter, counter-screen for LRH-1 inverse agonist project, dose response (AID 651969); type: functional
[2] = target: Nuclear receptor subfamily 5 group A member 2 (Homo sapiens, UniProt O00482); type: functional, cell-based;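 also: HEK293T cells transfected with LRH-1 and a StAR promoter luciferase reporter; potency for inhibitors that lower LRH-1 driven reporter light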
Nuclear receptor subfamily 5 group A member 2, sequence (O00482 whole entry): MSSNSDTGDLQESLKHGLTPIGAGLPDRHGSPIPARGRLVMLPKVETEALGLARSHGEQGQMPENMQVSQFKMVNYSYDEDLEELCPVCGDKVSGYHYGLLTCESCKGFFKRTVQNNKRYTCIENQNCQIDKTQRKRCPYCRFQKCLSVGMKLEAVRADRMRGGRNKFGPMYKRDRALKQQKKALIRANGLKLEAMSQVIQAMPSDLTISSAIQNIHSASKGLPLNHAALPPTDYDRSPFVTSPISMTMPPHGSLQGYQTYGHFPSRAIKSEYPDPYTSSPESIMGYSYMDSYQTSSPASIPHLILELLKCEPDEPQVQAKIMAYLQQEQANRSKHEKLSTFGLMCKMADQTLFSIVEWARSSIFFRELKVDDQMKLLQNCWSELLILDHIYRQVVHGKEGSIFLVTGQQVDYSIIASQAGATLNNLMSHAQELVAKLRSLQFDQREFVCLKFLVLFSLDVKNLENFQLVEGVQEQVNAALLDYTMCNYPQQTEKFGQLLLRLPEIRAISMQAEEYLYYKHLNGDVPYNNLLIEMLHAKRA

[3] = target: Long-chain-fatty-acid--AMP ligase FadD28 (Mycobacterium tuberculosis, UniProt P9WQ59); assay: Fluorescence polarization aasay to screen for inhibitors that compete for the binding of FadD28 to a bisubstrate Measured in Biochemical System Using Plate Reader - 2147-01_Inhibitor_Dose_CherryPick_Activity.; type: functional, Mycobacterium tuberculosis H37Rv
Long-chain-fatty-acid--AMP ligase FadD28, sequence (P9WQ59 whole entry): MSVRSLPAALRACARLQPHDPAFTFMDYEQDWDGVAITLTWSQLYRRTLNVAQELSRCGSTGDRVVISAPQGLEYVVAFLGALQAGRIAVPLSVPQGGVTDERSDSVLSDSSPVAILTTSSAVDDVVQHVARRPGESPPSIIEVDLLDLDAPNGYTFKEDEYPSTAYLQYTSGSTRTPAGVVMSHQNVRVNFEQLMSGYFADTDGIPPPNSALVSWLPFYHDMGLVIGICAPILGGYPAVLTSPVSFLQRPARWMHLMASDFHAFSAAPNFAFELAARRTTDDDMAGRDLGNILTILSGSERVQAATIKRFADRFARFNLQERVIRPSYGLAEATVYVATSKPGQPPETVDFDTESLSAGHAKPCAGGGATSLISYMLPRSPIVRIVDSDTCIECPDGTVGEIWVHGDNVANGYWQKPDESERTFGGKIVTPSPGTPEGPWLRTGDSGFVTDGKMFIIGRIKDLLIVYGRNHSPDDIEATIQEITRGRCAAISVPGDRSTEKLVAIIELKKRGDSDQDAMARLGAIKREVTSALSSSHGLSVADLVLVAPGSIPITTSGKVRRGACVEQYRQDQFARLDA

[4] = target: Dual specificity tyrosine-phosphorylation-regulated kinase 1A (Rattus norvegicus, UniProt Q63470); type: biochemical, Homo sapiens
Protein Wnt-3a = Protein Wnt-3a (Mus musculus, UniProt P27467); assay: SAR analysis of small molecule antagonists of Gli-SUFU in a Wnt3a luminescent reporter assay.; type: functional
Protein Wnt-3a, sequence (P27467 whole entry): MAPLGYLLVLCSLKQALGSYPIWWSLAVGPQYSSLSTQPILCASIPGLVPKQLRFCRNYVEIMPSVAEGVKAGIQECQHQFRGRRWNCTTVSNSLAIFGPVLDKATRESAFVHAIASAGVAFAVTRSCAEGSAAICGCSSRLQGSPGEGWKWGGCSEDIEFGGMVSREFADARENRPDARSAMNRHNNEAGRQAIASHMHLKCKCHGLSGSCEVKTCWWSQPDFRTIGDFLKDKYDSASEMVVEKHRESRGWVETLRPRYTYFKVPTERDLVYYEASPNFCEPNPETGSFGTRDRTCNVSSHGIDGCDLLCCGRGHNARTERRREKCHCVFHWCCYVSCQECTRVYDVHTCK

Kallikrein-7 = Kallikrein-7 (Homo sapiens, UniProt P49862); assay: Fluorescence Intensity-based biochemical primary high throughput dose response assay to identify activators of kallikrein-7 (K7) zymogen.
Kallikrein-7, sequence (P49862 whole entry): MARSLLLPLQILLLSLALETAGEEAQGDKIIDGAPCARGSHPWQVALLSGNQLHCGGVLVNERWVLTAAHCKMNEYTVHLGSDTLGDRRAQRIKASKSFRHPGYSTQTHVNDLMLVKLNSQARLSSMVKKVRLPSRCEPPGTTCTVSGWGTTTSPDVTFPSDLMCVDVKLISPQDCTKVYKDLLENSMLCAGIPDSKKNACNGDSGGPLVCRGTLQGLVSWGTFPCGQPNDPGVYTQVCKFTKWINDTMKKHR

Cytochrome P450 2C19 = Cytochrome P450 2C19 (Homo sapiens, UniProt P33261); assay: Cytochrome panel assay with activity outcomes. Panel member name: p450-cyp2c19 Compounds with AC50 equal or less than 10 uM are considered active; type: functional; conditions: read-out: AC50
Cytochrome P450 2C19, sequence (P33261 whole entry): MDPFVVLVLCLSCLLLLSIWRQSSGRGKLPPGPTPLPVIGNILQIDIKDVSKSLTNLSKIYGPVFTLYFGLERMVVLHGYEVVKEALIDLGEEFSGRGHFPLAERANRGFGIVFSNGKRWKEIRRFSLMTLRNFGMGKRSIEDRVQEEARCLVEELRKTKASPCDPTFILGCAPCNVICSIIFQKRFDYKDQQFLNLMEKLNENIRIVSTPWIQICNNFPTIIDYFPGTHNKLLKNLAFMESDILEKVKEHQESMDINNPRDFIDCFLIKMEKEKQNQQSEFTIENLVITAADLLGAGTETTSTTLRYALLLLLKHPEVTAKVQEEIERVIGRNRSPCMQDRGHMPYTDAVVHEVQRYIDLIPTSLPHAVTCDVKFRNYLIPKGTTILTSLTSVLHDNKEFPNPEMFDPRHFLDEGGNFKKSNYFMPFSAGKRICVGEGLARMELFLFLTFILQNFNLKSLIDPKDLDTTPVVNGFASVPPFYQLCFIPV

[5] = target: T1, Rac GTPase-activating protein 1 (Homo sapiens, UniProt Q9H0H5); assay: blockers of MgcRacGAP-driven Rac1 GTP hydrolysis – biochemical, ADP Hunter fluorescence, primary and confirmatory, confirmation (AID 624330); type: functional
T1 sequence (Q9H0H5 whole entry): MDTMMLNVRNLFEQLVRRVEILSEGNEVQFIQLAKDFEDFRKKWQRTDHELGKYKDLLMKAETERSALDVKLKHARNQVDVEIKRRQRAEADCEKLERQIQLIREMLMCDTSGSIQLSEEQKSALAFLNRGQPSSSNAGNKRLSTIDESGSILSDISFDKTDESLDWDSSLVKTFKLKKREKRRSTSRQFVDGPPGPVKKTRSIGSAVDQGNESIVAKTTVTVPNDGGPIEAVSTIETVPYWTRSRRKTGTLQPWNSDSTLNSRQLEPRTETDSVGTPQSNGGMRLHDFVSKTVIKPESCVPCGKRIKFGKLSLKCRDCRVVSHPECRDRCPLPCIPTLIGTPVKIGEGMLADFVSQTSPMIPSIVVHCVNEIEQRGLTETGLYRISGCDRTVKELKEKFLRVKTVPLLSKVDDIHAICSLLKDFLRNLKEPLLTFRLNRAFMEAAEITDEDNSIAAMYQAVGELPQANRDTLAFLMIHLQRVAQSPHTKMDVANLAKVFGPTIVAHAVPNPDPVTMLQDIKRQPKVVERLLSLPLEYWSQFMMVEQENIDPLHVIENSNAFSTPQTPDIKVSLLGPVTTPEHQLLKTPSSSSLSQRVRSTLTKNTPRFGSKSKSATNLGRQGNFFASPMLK

[6] = viability loss in HeLa cells – cytotoxicity control for MgcRacGAP inhibitor project, dose response (AID 624300); type: functional
[7] = target: Glucose-6-phosphate 1-dehydrogenase (Homo sapiens, UniProt P11413); assay: inhibition of Homo sapiens G6PD, dose series – biochemical, fluorescence, selectivity assay for P. falciparum G6PD inhibitor project, dose response (AID 504792); type: functional
Glucose-6-phosphate 1-dehydrogenase, sequence (P11413 whole entry): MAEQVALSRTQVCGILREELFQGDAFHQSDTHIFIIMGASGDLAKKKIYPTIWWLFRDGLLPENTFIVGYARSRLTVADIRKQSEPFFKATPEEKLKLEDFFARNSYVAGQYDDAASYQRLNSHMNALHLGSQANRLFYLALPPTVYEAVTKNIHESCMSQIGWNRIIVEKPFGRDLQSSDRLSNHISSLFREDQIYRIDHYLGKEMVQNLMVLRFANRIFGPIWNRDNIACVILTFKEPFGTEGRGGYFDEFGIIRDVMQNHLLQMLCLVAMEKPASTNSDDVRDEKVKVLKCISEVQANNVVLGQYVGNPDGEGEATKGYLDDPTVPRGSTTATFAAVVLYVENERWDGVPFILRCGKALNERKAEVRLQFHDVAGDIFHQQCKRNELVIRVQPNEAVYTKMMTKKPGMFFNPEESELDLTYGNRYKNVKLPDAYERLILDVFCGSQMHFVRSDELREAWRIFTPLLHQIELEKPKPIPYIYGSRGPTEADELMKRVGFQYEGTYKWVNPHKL

[8] = target: T2, DNA repair protein RAD52 homolog (Homo sapiens, UniProt P43351); type: functional, biochemical
T2 sequence (P43351 whole entry): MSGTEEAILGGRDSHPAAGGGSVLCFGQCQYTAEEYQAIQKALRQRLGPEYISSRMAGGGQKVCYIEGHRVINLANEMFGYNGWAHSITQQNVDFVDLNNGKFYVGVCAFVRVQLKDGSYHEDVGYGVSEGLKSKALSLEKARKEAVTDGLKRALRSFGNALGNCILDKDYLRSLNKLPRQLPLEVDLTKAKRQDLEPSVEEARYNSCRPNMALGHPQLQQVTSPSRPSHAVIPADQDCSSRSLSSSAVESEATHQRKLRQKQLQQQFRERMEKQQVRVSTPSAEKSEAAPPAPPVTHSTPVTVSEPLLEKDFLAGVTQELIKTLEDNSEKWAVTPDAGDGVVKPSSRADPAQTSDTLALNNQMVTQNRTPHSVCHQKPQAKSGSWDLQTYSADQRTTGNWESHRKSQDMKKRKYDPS

[9] = Counterscreen for activators of the function of SWI/SNF related, matrix associated, actin dependent regulator of chromatin, subfamily a, member 2 (SMARCA2, BRM): Luminescence-based cell-based high throughput dose response assay to identify non-selective compounds using the VP16 reporter assay.; type: functional
[10] = target: SWI/SNF-related matrix-associated actin-dependent regulator of chromatin subfamily A member 2 (Homo sapiens, UniProt P51531); assay: Luminescence-based cell-based high throughput dose response assay to identify activators of the function of SWI/SNF related, matrix associated, actin dependent regulator of chromatin, subfamily a, member 2 (SMARCA2, BRM).; type: functional
SWI/SNF-related matrix-associated actin-dependent regulator of chromatin subfamily A member 2, sequence (P51531 whole entry): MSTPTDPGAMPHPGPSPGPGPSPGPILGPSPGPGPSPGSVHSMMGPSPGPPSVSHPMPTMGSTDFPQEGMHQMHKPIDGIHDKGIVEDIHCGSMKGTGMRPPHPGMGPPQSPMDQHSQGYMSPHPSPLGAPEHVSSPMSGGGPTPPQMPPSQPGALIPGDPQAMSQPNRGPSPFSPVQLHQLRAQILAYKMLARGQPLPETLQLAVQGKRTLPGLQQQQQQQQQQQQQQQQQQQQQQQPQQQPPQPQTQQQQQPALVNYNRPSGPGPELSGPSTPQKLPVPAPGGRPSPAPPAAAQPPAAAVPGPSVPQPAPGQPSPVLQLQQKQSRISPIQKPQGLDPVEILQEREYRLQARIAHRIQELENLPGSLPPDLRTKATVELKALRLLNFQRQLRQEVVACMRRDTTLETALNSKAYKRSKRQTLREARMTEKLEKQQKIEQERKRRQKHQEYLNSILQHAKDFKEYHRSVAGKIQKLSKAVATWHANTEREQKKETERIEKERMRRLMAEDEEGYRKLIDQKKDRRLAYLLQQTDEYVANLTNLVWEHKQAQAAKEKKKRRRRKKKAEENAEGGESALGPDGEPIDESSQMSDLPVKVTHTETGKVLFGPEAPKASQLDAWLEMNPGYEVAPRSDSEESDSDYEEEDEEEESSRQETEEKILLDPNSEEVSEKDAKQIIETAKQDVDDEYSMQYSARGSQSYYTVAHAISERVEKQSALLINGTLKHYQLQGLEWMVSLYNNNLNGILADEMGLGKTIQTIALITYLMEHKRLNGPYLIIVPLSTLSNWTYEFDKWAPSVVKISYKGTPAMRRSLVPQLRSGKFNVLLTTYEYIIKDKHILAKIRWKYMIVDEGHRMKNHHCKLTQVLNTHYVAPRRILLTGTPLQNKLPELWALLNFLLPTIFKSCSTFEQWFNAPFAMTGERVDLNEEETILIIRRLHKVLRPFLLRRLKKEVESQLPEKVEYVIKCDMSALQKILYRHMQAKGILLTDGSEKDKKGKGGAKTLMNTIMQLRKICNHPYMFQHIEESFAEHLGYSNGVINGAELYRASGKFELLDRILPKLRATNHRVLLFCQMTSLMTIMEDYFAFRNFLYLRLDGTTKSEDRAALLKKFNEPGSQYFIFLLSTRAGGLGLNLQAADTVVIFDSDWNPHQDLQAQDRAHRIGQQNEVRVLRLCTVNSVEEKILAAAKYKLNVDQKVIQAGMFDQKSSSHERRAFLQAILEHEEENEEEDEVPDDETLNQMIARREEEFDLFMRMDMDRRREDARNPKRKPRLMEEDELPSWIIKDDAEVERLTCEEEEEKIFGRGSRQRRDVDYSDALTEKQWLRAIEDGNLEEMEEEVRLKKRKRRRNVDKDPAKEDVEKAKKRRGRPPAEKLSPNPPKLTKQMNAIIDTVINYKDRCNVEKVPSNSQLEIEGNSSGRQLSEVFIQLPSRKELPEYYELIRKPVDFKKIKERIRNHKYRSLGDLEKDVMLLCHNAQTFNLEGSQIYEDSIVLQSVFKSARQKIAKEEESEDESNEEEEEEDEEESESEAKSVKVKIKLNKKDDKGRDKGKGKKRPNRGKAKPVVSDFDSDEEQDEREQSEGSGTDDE

Steroidogenic factor 1, sequence (Q13285 whole entry): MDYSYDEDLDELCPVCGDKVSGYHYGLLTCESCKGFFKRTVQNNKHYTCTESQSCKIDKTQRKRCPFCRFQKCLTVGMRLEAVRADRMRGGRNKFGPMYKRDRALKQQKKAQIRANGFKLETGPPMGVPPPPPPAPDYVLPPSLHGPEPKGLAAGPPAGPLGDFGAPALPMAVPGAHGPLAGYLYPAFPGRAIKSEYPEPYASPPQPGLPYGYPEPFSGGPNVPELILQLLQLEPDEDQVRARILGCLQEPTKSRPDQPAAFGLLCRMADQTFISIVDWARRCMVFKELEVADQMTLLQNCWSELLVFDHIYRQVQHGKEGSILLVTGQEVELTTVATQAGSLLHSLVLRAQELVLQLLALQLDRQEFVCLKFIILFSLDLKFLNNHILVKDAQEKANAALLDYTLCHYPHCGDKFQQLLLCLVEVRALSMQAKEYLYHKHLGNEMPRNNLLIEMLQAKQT

Structure (SMILES)	IC50 (Steroidogenic factor 1)	IC50 [1]	IC50 [2]	AC50 [4]	IC50 (Protein Wnt-3a)	other results
Cc1ccc(-c2nn3c(C)nnc3s2)cc1NC(=O)c1cccs1	0.684 µM (active)	35.9 µM (inactive)	1.13 µM (active)			
COc1cccc(/C=N/n2c(S)nnc2C2CCCCC2)c1O				6.14 µM (active)		AC50 [3]: 16.8 µM (active)
Cc1ccc(NC(=O)CN2C(=O)NC(C)(CC(C)C)C2=O)c(Br)c1 (centres undefined)	8.09 µM (active)	35.9 µM (inactive)	11.7 µM (inactive)			
COc1cc(OC)cc(C(=O)Nc2cc(N3CCCC3)ncn2)c1					> 21.8 µM (inactive)	
CCN(CC)c1cc(NC(=O)c2ccc(Br)o2)ncn1					> 21.8 µM (inactive)	
COc1ccc2nc3cc(Cl)ccc3c(Nc3ccc(O)c(CN4CCN(C)CC4)c3)c2c1				7.7 µM (active)		EC50 (Kallikrein-7): > 69.5 µM (inactive); AC50 (Cytochrome P450 2C19): 2.51 µM (inconclusive); IC50 [5]: 45.4 µM (active); CC50 [6]: 25.6 µM (active); IC50 [7]: > 80 µM (inactive); AC50 [8]: < 0.15 µM (active); EC50 [9]: > 91.1 µM (inactive); EC50 [10]: > 91.1 µM (inactive)
